1 molecule from patent US6750213B2, “Estrogen receptor modulators” (Merck & Co., Inc., priority 2000, dated 2004) can be followed below.

For the assay, the system named is MCF-7 cells. As to the kind of experiment: MCF-7 Estrogen Dependent Proliferation Assay. The format is cell-based. The note with it: Homo sapiens, MCF7, addition to Estrogen Depleted Media (EDM), read-out: EC50 of stimulation of growth of MCF-7 cells. An excerpt: MCF-7 cells (ATCC #HTB-22) are human mammary gland adenocarcinoma cells that require estrogen for growth. The growth media (GM) for the MCF-7 cells is Minimum Essential Media (without phenol red) supplemented with fetal bovine serum(FBS) to 10%. The FBS serves as the sole source of estrogen and this GM supports the full growth of the cells and is used for the routine growth of the cell cultures. When MCF-7 cells are placed in a media in which 10% Charcoal-Dextran treated fetal bovine serum (CD-FBS) is substituted for FBS, the cells will cease to divide but will remain viable. […] The addition of estradiol to EDM stimulates the growth of the MCF-7 cells in a dose dependent manner with an EC50 of 2 pM. Growing MCF-7 cells are washed several times with EDM and the cultures then maintained in EDM for a minimum of 6 days in order to deplete the cells of endogenous estrogen. […] At this point, the culture supernatants are aspirated, the cells washed 2×with PBS, the wash solution aspirated and the protein content of each well determined. Each drug dilution is evaluated on a minimum of 5 wells and the range of dilution of the test compounds in the assay is […] to 1000 nM. […] The assay is terminated at day 8-10 when the appropriate controls reach 80-90% confluency and the protein content of each well is determined as above.

As to `C[C@]12CC[C@@H]3c4ccc(O)cc4CC[C@H]3[C@@H]1CC[C@@H]2O` [estradiol], the EC50 came out at 2 pM.

A word on the EC50: it is the concentration that produces a half-maximal response.
